Values after ≈ are worked out from the molar mass of the structure shown. Where two headings read alike, the source gives them in different places. Non-standard residues stand in square brackets, D forms with d. Residues, ends and D or L forms follow the SMILES beside them. Ahx = NCCCCCC(=O)O; βAla = NCCC(=O)O Some results are limits rather than exact numbers.

Data on 4 compounds can be found in publication PMC11350675, “Identifying Cell-Penetrating Peptides for Effectively Delivering Antimicrobial Molecules into Streptococcus suis” (Antibiotics, 2024).

Data set [1] relates to S. suis serotype 2 strain SC070731. The data set is classed as cell-based, Streptococcus suis. As for the experimental part:
The broth microdilution method was employed to determine the MIC values, following a previous study and a recently published protocol with a few modifications. In brief, an overnight S. suis serotype 2 strain SC070731 culture was diluted 100-fold in fresh THB and grown to an OD600nm of 0.6. Subsequently, the bacterial suspension was further diluted 2000-fold in fresh Mueller–Hinton broth (MHB) to a final concentration of approximately 1 × 10^5 CFU/mL. Then, 180 µL of the bacterial solution was transferred into a 96-well plate. Immediately, 20 µL of a 10× peptides, PNAs, or CPP-PNA conjugates working solution was added. As a negative control, an equivalent volume of water was added instead. The plate was then incubated at 37 °C with 5% CO2 for 18 h, and the growth was periodically monitored by measuring the OD595nm every hour using a BioTek ELx800 plate reader. The MIC value was determined as the lowest concentration inhibiting visible growth in the wells (OD595nm < 0.1).

Data set [2] relates to S. suis serotype 2 strain SC070731 cells. As to the kind of experiment: Cellular uptake of FITC-labeled CPPs by flow cytometry. The settings on record: 10 µM FITC-labeled CPP or FITC molecule, 1 h, 37 °C, PBS; flow cytometry, 50,000 events, 488 nm laser. The data set is classed as cell-based, Streptococcus suis. Here is the method:
S. suis serotype 2 strain SC070731 was streaked onto THA plates and incubated at 37 °C with 5% CO2 for 12 h. A bacterial colony was picked and inoculated overnight in 2 mL of THB at 37 °C. The overnight culture was then diluted 100-fold in fresh THB and grown to an OD600nm of 0.6 (approximately 3 × 10^8 CFU/mL). The obtained culture was washed twice with PBS and resuspended in PBS. Further, 900 µL of the bacterial solution was transferred into a 2 mL tube. Immediately, 100 µL of a 10× FITC-labeled CPPs working solution was added to a final concentration of 10 µM. Controls were prepared using an equivalent volume of water or a 10× FITC molecule solution. The reaction tubes were incubated for one hour at 37 °C and 10 rpm rotation in the dark. […] The fluorescence emitted by the 640 nm laser was used to analyze the cell membrane stained with Alexa Fluor 633-WGA. In contrast, the fluorescence emitted by the 488 nm laser was used to analyze the distribution of FITC-labeled CPPs in bacterial cells. […]
As mentioned, the bacterial cells were treated with FITC-labeled CPPs and fixed with 4% paraformaldehyde. […] Bacterial cells in suspension were analyzed at a 200–300 events/s flow rate, and 50,000 events were recorded for analysis. […] The mean fluorescence intensity of FITC was analyzed using FlowJo^TM v10 software (BD Biosciences). […]

Setting [3] is: S. suis serotype 2 strain SC070731, broth microdilution in MHB, approx. 1 × 10^5 CFU/mL, 37 °C, 5% CO2, 18 h, lowest concentration inhibiting visible growth (OD595nm < 0.1).

For `N=C(N)NCCC[C@H](NC(=O)CN)C(=O)N[C@@H](CCCCN)C(=O)N[C@@H](CCCCN)C(=O)N[C@@H](CCCNC(=N)N)C(=O)N[C@@H](CCCNC(=N)N)C(=O)N[C@@H](CCC(N)=O)C(=O)N[C@@H](CCCNC(=N)N)C(=O)N[C@@H](CCCNC(=N)N)C(=O)N[C@@H](CCCNC(=N)N)C(=O)N[C@@H](Cc1ccc(O)cc1)C(=O)N[C@@H](CCCCN)C(N)=O` [HIV-1 TAT], the MIC in data set [1] (setting [3]) is above 128 µM. Take `O=C1OC2(c3ccc(O)cc3Oc3cc(O)ccc32)c2ccc(N=C=S)cc21` [FITC molecule]: the “cells clustered in quadrant 4 (FITC-positive), share of total cells” value in data set [2] stood at 64.80%.

Regarding `N=C(N)NCCC[C@H](NC(=O)CCCCCNC(=O)[C@H](CCCNC(=N)N)NC(=O)[C@H](CCCNC(=N)N)NC(=O)CCCCCNC(=O)[C@H](CCCNC(=N)N)NC(=O)[C@H](CCCNC(=N)N)NC(=O)CCCCCNC(=O)[C@H](CCCNC(=N)N)NC(=O)[C@H](CCCNC(=N)N)NC(=O)CCCCCNC(=O)[C@@H](N)CCCNC(=N)N)C(=O)NCCCCCC(=O)NCCC(N)=O` [(RXR)4XB] (H-R[Ahx]RR[Ahx]RR[Ahx]RR[Ahx]R[Ahx][βAla]-NH2), in data set [1] (18 h), the MIC stood at 4 µM (≈ 7.61 µg/mL). On to “Free PNA: gyrA-specific antisense peptide nucleic acid, ttgcattatatg, without carrier peptide (TTGCATTATATG; all peptide nucleic acid (PNA); Unconjugated PNA, no carrier peptide)”, for which the MIC in data set [1] (setting [3]) is above 32 µM.
